Results from ChEMBL document CHEMBL1125437, “Syntheses, resolution, and structure-activity relationships of potent acetylcholinesterase inhibitors: 8-carbaphysostigmine analogues” (J Med Chem, 1992).

How the values were obtained:
[1] = (§1) In vitro lethality measured at 24 hours in mice following intraperitoneal administration; conditions: mouse, in vivo, ip, LD50
[2] = target: T1, Acetylcholinesterase (Homo sapiens, UniProt P22303); assay: In vitro inhibitory activity against human AchE (Acetylcholinesterase)
T1 sequence (P22303 whole entry): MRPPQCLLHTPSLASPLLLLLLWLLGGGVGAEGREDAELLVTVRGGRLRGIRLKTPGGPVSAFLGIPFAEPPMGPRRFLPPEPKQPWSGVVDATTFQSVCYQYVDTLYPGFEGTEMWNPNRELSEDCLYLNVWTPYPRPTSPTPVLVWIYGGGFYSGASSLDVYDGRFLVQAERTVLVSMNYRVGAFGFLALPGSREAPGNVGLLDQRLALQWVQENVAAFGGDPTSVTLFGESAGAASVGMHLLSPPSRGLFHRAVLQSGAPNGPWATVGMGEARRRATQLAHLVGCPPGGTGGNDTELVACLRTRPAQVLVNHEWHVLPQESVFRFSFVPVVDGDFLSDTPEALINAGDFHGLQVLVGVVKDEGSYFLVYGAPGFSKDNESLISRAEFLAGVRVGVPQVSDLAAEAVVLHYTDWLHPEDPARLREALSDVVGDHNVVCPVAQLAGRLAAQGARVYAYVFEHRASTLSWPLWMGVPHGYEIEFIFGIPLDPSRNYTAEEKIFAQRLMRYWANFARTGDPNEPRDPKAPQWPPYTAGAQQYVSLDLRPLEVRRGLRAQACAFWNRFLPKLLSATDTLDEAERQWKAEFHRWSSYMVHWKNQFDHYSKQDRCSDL

[3] = test system: Mus musculus; assay: Percent elevation of ACh level in mouse forebrain following intraperitoneal administration at a dose of 2.0 mg/kg; format: functional
[4] = test system: Mus musculus; assay: as §1; conditions: in vivo, ip, 24 h
[5] = test system: Mus musculus; assay: Percent elevation of ACh level in mouse forebrain following intraperitoneal administration at a dose of 1.2 mg/kg; format: functional
[6] = test system: Mus musculus; assay: Percent elevation of ACh level in mouse forebrain following intraperitoneal administration at a dose of 1.6 mg/kg; format: functional
[7] = target: T1, Acetylcholinesterase; assay: In vitro inhibitory activity against human Acetylcholinesterase
[8] = test system: Mus musculus; assay: Percent elevation of ACh level in mouse forebrain following intraperitoneal administration at a dose of 4.8 mg/kg; format: functional
[9] = test system: Mus musculus; assay: Percent elevation of ACh level in mouse forebrain following intraperitoneal administration at a dose of 3.4 mg/kg; format: functional
[10] = test system: Mus musculus; assay: Percent elevation of ACh level in mouse forebrain following intraperitoneal administration at a dose of 0.4 mg/kg; format: functional
[11] = test system: Mus musculus; assay: Percent elevation of ACh level in mouse forebrain following intraperitoneal administration at a dose of 0.8 mg/kg; format: functional

| Structure (SMILES) | LD50 at 24 h [1] [mg/kg] | IC50 [2] [nM] | other results |
| --- | --- | --- | --- |
| CCCCCCNC(=O)Oc1ccc2c(c1)[C@]1(C)CCN(C)C1C2 (mixture of isomers) | 10 | 77 | Control [3]: 162% |
| CCCCCCCNC(=O)Oc1ccc2c(c1)[C@]1(C)CCN(CC)C1C2 (single isomer, unassigned; (-)) |  | 36 | LD50 [4]: 6 mg/kg; Control [5]: 129% |
| CCN1CC[C@@]2(C)c3cc(OC(=O)Nc4ccccc4)ccc3CC12 (mixture of isomers) | 8 | 176 | Control [6]: 121% |
| CCCCCCNC(=O)Oc1ccc2c(c1)[C@@H]1CCN(CC)C1C2 (mixture of isomers) | 19 | 208 |  |
| CCN1CC[C@@]2(C)c3cc(OC(=O)NC)ccc3CC12 (mixture of isomers) | 0.88 |  | IC50 [7]: 38 nM |
| CCCCNC(=O)Oc1ccc2c(c1)[C@@H]1CCN(CC)C1C2 (mixture of isomers) | > 32 | 1080 |  |
| CCN1CC[C@H]2c3cc(OC(=O)NC)ccc3CC21 (stereo partly drawn) |  | 253 |  |
| CCCNC(=O)Oc1ccc2c(c1)[C@]1(C)CCN(CC)C1C2 (mixture of isomers) | 6 | 154 |  |
| CCCCCCNC(=O)Oc1ccc2c(c1)[C@]1(C)CCN(CC)C1C2 (single isomer, unassigned; (+)) |  | 233 | LD50 [4]: 32 mg/kg |
| CCCCCCCNC(=O)Oc1ccc2c(c1)[C@]1(C)CCN(C)C1C2 (stereo partly drawn) | 21 | 114 |  |
| CCCCCCCNC(=O)Oc1ccc2c(c1)[C@@H]1CCN(CCC)C1C2 (stereo partly drawn) |  | 629 |  |
| CCN1CC[C@@]2(C)c3cc(OC(=O)N[C@@H](C)c4ccccc4)ccc3CC12 (stereo partly drawn) |  | 1330 |  |
| CCCCCCCNC(=O)Oc1ccc2c(c1)[C@]1(C)CCN(CC)C1C2 (mixture of isomers) |  | 58 | LD50 [4]: 9 mg/kg |
| CCCCNC(=O)Oc1ccc2c(c1)[C@]1(C)CCN(CC)C1C2 (mixture of isomers) | 4 |  | IC50 [7]: 90 nM |
| CCCCCCCNC(=O)Oc1ccc2c(c1)[C@]1(C)CCN(C)[C@@H]1N2C [EPTASTIGMINE] | 24 | 110 | Control [8]: 148% |
| CCCCCCNC(=O)Oc1ccc2c(c1)[C@]1(C)CCN(CCC)C1C2.Cc1ccc(C(=O)OC(C(=O)O)C(OC(=O)c2ccc(C)cc2)C(=O)O)cc1.O (mixture of isomers) | 17 |  | IC50 [7]: 62 nM; Control [9]: 141% |
| CCCNC(=O)Oc1ccc2c(c1)[C@@H]1CCN(CC)C1C2 (stereo partly drawn) |  | 2190 |  |
| CCCCCCNC(=O)Oc1ccc2c(c1)[C@@H]1CCN(CCC)C1C2 (stereo in doubt; 1z) |  | 518 |  |
| CCN1CC[C@@]2(C)c3cc(OC(=O)NC(C)(C)C)ccc3CC12 (mixture of isomers) | > 100 |  |  |
| CNC(=O)Oc1ccc2c(c1)[C@]1(C)CCN(C)[C@@H]1N2C [PHYSOSTIGMINE] | 0.88 |  |  |
| CCCCCCCNC(=O)Oc1ccc2c(c1)[C@@H]1CCN(CC)C1C2 (mixture of isomers) | 58 |  | IC50 [7]: 381 nM |
| CCN1CC[C@@]2(C)c3cc(OC(=O)NCc4ccccc4)ccc3CC12 (mixture of isomers) | 2 |  | Control [10]: 123% |
| CCCCCCCNC(=O)Oc1ccc2c(c1)[C@]1(C)CCN(CC)C1C2 (single isomer, unassigned; (+)) |  | 211 | LD50 [4]: 18 mg/kg |
| CCCCCCCNC(=O)Oc1ccc2c(c1)[C@]1(C)CCN(Cc3ccccc3)C1C2 (stereo partly drawn) |  |  | IC50 [7]: 506 nM |
| CCCCCCNC(=O)Oc1ccc2c(c1)[C@@H]1CCN(CCC)C1C2 (stereo in doubt; 1y) |  | 546 |  |
| CCCCCCCNC(=O)Oc1ccc2c(c1)[C@]1(C)CCN(CCC)C1C2 (stereo partly drawn) | 27 |  | IC50 [7]: 93 nM |
| CCCCCCNC(=O)Oc1ccc2c(c1)[C@]1(C)CCN(CC)C1C2 (single isomer, unassigned; (-)) |  | 20 | LD50 [4]: 4 mg/kg; Control [11]: 148% |
| CCCCCCNC(=O)Oc1ccc2c(c1)[C@]1(C)CCN(CC)C1C2 (mixture of isomers) |  | 45 | LD50 [4]: 5 mg/kg |
